From ChEMBL document CHEMBL1201862, “PubChem BioAssay data set” (2004)
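Growth conditions: 96-well plates. Treatment: test compound, 48 hours, 5 concentrations. Analysis: linear interpolation between bracketing concentrations; unreached endpoints set to highest concentration. Abbreviation: GI50, concentration required for 50% inhibition of growth.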 The source made the active and inactive calls. Rule as the data show it: active = GI50 up to about 1.1 µM and inactive = higher.

Columns and labels:
Assay in all cases: growth of human tumour cells (NCI), 48 h
HOP-92 = tested on: HOP-92
786-0 = tested on: 786-0
TK-10 = tested on: TK-10
OVCAR-8 = tested on: OVCAR-8
HCC 2998 = tested on: HCC 2998
K562 = tested on: K562
OVCAR-3 = tested on: OVCAR-3
RXF 393 = tested on: RXF 393
SR = tested on: SR
COLO 205 = tested on: COLO 205
HCT-116 = tested on: HCT-116
SW-620 = tested on: SW-620
NCI-H522 = tested on: NCI-H522
HOP-62 = tested on: HOP-62
SNB-19 = tested on: SNB-19
SF-539 = tested on: SF-539
IGROV-1 = tested on: IGROV-1
NCI-H23 = tested on: NCI-H23
SF-268 = tested on: SF-268
A549 = tested on: A549
HT-29 = tested on: HT-29
UO-31 = tested on: UO-31
DU-145 = tested on: DU-145
EKVX = tested on: EKVX
UACC-257 = tested on: UACC-257
SK-MEL-2 = tested on: SK-MEL-2
OVCAR-5 = tested on: OVCAR-5
KM12 = tested on: KM12
HCT-15 = tested on: HCT-15
SNB-75 = tested on: SNB-75
M14 = tested on: M14
SK-MEL-28 = tested on: SK-MEL-28
ACHN = tested on: ACHN
PC-3 = tested on: PC-3
T47D = tested on: T47D
UACC-62 = tested on: UACC-62
HL-60 = tested on: HL-60
CCRF-CEM = tested on: CCRF-CEM
Malme-3M = tested on: Malme-3M
SK-OV-3 = tested on: SK-OV-3
SN12C = tested on: SN12C
MCF7 = tested on: MCF7
A498 = tested on: A498
OVCAR-4 = tested on: OVCAR-4
U-251 = tested on: U-251
LOX IMVI = tested on: LOX IMVI
RPMI-8226 = tested on: RPMI-8226
MOLT-4 = tested on: MOLT-4
NCI/ADR-RES = tested on: NCI/ADR-RES
MDA-MB-435 = tested on: MDA-MB-435
Hs-578T = tested on: Hs-578T
SK-MEL-5 = tested on: SK-MEL-5
MDA-MB-231 = tested on: MDA-MB-231
MDA-N = tested on: MDA-N
NCI-H460 = tested on: NCI-H460
NCI-H226 = tested on: NCI-H226

Measured: GI50

COc1cc([C@@H]2c3cc4c(cc3[C@@H](Nc3ccc(NC(=O)c5cc([N+](=O)[O-])cn5C)cc3)[C@H]3COC(=O)[C@H]23)OCO4)cc(OC)c1O
active: HOP-92 79.6 nM | 786-0 62.7 nM | TK-10 479 nM | OVCAR-8 110 nM | HCC 2998 223 nM | K562 132 nM | OVCAR-3 449 nM | RXF 393 352 nM | SR < 10 nM | COLO 205 219 nM | HCT-116 138 nM | SW-620 162 nM | NCI-H522 291 nM | HOP-62 19.8 nM | SNB-19 54 nM | SF-539 61.7 nM | IGROV-1 265 nM | NCI-H23 40.1 nM | SF-268 118 nM | A549 19.5 nM | HT-29 195 nM | UO-31 231 nM | DU-145 < 13 nM | EKVX 658 nM | UACC-257 658 nM | SK-MEL-2 938 nM | OVCAR-5 468 nM | KM12 216 nM | SNB-75 61.4 nM | M14 77.1 nM | SK-MEL-28 621 nM | ACHN < 10.8 nM | PC-3 143 nM | T47D 13.4 nM | UACC-62 61.2 nM | HL-60 < 21.3 nM
307 nM: HCT-15

CO[C@@H]1/C=C\C=C(/C)C(=O)NC2=CC(=O)C(NCCN(C)C)=C(C[C@@H](C)C[C@@H](OC)[C@@H](O)[C@H](C)/C=C(\C)[C@H]1OC(N)=O)C2=O
active: 786-0 28.6 nM | CCRF-CEM 24.7 nM | OVCAR-8 17.2 nM | HCC 2998 15 nM | K562 13.9 nM | Malme-3M 13 nM | SR < 10 nM | SK-OV-3 13.7 nM | COLO 205 14.5 nM | HCT-116 17.1 nM | SN12C 11.3 nM | MCF7 < 10 nM | SNB-19 29.2 nM | IGROV-1 13.9 nM | NCI-H23 < 10 nM | U-251 11 nM | A549 < 10 nM | UO-31 838 nM | UACC-257 15.9 nM | LOX IMVI 10.8 nM | RPMI-8226 71.3 nM | KM12 12.2 nM | SNB-75 < 10 nM | M14 10.4 nM | MOLT-4 30.3 nM | UACC-62 17.2 nM
inactive: A498 13200 nM | OVCAR-4 1140 nM
619 nM: HCT-15

CN(C)C1COC2Cc3ccccc3C1O2 (centres undefined)
inactive: NCI/ADR-RES > 100000 nM | 786-0 > 100000 nM | CCRF-CEM > 100000 nM | HCC 2998 > 100000 nM | OVCAR-3 > 100000 nM | MDA-MB-435 > 100000 nM | Malme-3M > 100000 nM | Hs-578T > 100000 nM | SK-MEL-5 > 100000 nM | COLO 205 > 100000 nM | MDA-MB-231 > 100000 nM | MDA-N > 100000 nM | SW-620 > 100000 nM | NCI-H522 > 100000 nM | MCF7 > 100000 nM | HOP-62 > 100000 nM | SNB-19 > 100000 nM | SF-539 > 100000 nM | A498 > 100000 nM | IGROV-1 > 100000 nM | U-251 > 100000 nM | UO-31 > 100000 nM | DU-145 > 100000 nM | EKVX > 100000 nM | UACC-257 > 100000 nM | SK-MEL-2 > 100000 nM | RPMI-8226 > 100000 nM | KM12 > 100000 nM | MOLT-4 > 100000 nM | SK-MEL-28 > 100000 nM | NCI-H460 > 100000 nM | PC-3 > 100000 nM | NCI-H226 > 100000 nM | T47D > 100000 nM | UACC-62 > 100000 nM | HL-60 > 100000 nM

COc1cc(C(=O)N2CCN(C=O)C2=S)cc(OC)c1OC
inactive: RPMI-8226 7310 nM
active: UO-31 67.5 nM
